Measured values as given in patent US5246931A, “Carbocyclic nucleoside analogs” (priority 1991, dated 1993).
In brackets after ≈: the same amount, converted by molar mass. Several values for one entry are separate records, joined by “and”; a condition that tells them apart may be missing. Identical values can stand only once.

What was measured:
[1] = test system: Herpes simplex type 2 (HSV-2) strain MS; assay: CPE inhibition assay, HSV-2 (MS) in Vero cells
[2] = test system: Herpes simplex type 1 (HSV-1) strain E-377; assay: CPE inhibition assay, HSV-1 (E-377) in Vero cells; conditions: for VR (virus rating): HSV-1 (E-377), Vero
HSV-1 (E-377) = assay: Plaque reduction in Vero cells, HSV-1 (E-377); format: cell-based, Herpes simplex virus type 1; conditions: Human alphaherpesvirus 1, read-out: MIC50
Method: (§1) A-2. Alternate Method for Evaluation of Compounds for Activity Against Herpes Simplex Virus Types 1 and 2
(§2) Confluent Vero cell monolayers were infected with a dilution of stock virus which yielded approximately 100 plaque forming units (pfu) per well. After the adsorption period, the infected cell monolayers were treated in duplicate with serial dilutions of the test compound. Duplicate cell controls containing medium alone and virus controls containing medium and virus were run simultaneously with the test compound. After incubation for 3 to 4 days to allow for the development of visible, discrete plaques in the untreated, virus infected control cultures, the monolayers were fixed with formaldehyde and stained with crystal violet. Plaques visible to the unaided eye were counted and the mean number of plaques in the duplicate wells for each compound concentration tested and for the untreated, virus infected controls were determined. The concentration of test compound which reduced by 50% the mean number of plaques in the untreated, virus infected control cultures was then determined and expressed as the ID50.

HSV-1 (123) = assay: Plaque reduction in Vero cells, HSV-1 (123); format: cell-based, Herpes simplex virus type 1; conditions: Human alphaherpesvirus 1, read-out: MIC50
Method: as §1, §2

HSV-2 = assay: Plaque reduction in Vero cells, HSV-2; format: cell-based, Herpes simplex virus type 2; conditions: Human alphaherpesvirus 2, HSV-2, Vero, read-out: MIC50
Method: as §1, §2

[3] = test system: Herpesvirus 1 (strain 123); assay: In vivo activity against Herpesvirus 1 in mice (intraperitoneal challenge); parameters: species or system Swiss mice (CD-1)
Method: E. Evaluation of Compounds for In Vivo Activity Against Herpesvirus 1 in Mice
(§3) Four-week-old female outbred Swiss mice (CD-1, VAF+, Charles River Labs) were housed 5 per Microisolator® cage. Feed and water were supplied ad libitum. Fifteen mice were randomly assigned to each of the following treatment groups:
(§4) Test compounds were diluted in 0.4% caboxymethylcellulose (CMC) prepared in phosphate buffered saline (PBS) at aconcentrations consistent with dosing at 0.1 ml per 10 g of body weight. Compounds were administered subcutaneously once daily for a total of 7 doses. Five mice in each treatment group served as uninfected toxicity controls. The remaining ten mice in each group were challenged intraperitoneally with an LD90 dose of the twelfth in vivo passage of Herpesvirus 1 (strain 123). Virus challenge was administered two hours after the first dose of compound was given. Mortality was monitored daily for 21 days. The mortality rates, average day of death, geometric mean time to death and virus rating were calculated for each treatment group.

[4] = Toxicity in uninfected mice; format: in vivo, Swiss mice (CD-1); conditions: subcutaneous once daily, 7 doses
Method: as §3, §4

[5] = test system: duck hepatitis B virus (DHBV); assay: Efficacy against hepatitis B virus in vivo in ducklings; parameters: species or system Pekino ducklings; conditions: for Serum DHBV DNA: after treatment (days 10-17)
Method: F. Evaluation of Compounds for Efficacy Against Hepatitis B Virus In Vivo in Ducklings
The test method is an adaptation of the method of Smee, et al., Antimicrob. Agents Chemotherap. 27 277 (1985). The serum level of duck hepatitis B virus (DHBV) DNA was monitored in 6 infected Pekino ducklings from age 6 days to age 27 days. Four ducklings were treated with 70 mg/kg/day IP, b.i.d. of the test compound as a 3 mg/ml solution in 0.9% aqueous NaCl on days 10-17. Two control ducklings were treated with 23 ml/kg/day IP, b.i.d. of 0.9% aqueous NaCl on days 10-17. The level of DHBV DNA in the duckling serum was measured daily.

[6] = test system: Varicella-Zoster Virus (clinical isolate DM625); assay: microbe, parasite or virus in culture; format: cell-based; conditions: Human alphaherpesvirus 3, Fibroblast, 120 h; read-out: MIC50
[7] = test system: human foreskin fibroblasts (HFF); assay: MTT cytotoxicity assay in human foreskin fibroblasts
[8] = test system: Herpes simplex type 2 (HSV-2) strain MS; conditions: monkey, vero cells
[9] = test system: African green monkey kidney (Vero) cells; assay: Drug cytotoxicity in Vero host cells (CPE assay); conditions: Vero
[10] = test system: Herpes simplex type 1 (HSV-1) strain E-377; conditions: monkey, vero cells
[11] = Drug cytotoxicity in Vero host cells (CPE assay); conditions: monkey, vero cells

**Q.** Which “VR (virus rating)” value [1] does the source give for `Nc1nc(Cl)c2ncn(C3CC(CO)C3CO)c2n1` (stereo not shown) [Example 1H, 3-(2'-Amino-6'-chloro-9'H-purin-9'-yl)-1,2-bis(hydroxymethyl)cyclobutane] here?
**A.** The value was 0.6 and 0.5.

**Q.** And the “VR (virus rating)” value [2]?
**A.** The value was 1.4.

**Q.** With `Nc1nc2c(ncn2C2CC(CO)C2CO)c(=O)[nH]1` (stereo not shown) [Example 1I, 9-(2',3'-Bis(hydroxymethyl)cyclobutyl)guanine] as the compound, how does the IC50 (HSV-1 (E-377)) read?
**A.** Its IC50 is 0.5 µg/mL (≈ 1.88 µM).

**Q.** And the IC50 (HSV-1 (123))?
**A.** The IC50 was 1 µg/mL (≈ 3.77 µM).

**Q.** What about the IC50 (HSV-2) of the same compound?
**A.** The IC50 was 1 µg/mL (≈ 3.77 µM).

**Q.** What about the “VR (virus rating) = GMTD of experimental/GMTD of diluent treated control” value ([3]; 3.2 mg/kg) of the same compound?
**A.** Its value is 1.3.

**Q.** What about the “VR (virus rating) = GMTD of experimental/GMTD of diluent treated control” value ([3]; 10 mg/kg) of the same compound?
**A.** Its value is 1.6.

**Q.** What about the “VR (virus rating) = GMTD of experimental/GMTD of diluent treated control” value ([3]; 32 mg/kg) of the same compound?
**A.** The value was 2.5.

**Q.** What about the “No. Dead/No. Uninfected” value ([4]; 3.2 mg/kg) of the same compound?
**A.** Its value is 0/5.

**Q.** And the “No. Dead/No. Uninfected” value ([4]; 10 mg/kg)?
**A.** Its value is 0/5.

**Q.** And the “No. Dead/No. Uninfected” value ([4]; 32 mg/kg)?
**A.** The value was 0/3.

**Q.** And the “Deaths of treated ducks” value ([5]; DHBV-infected ducklings, 70 mg/kg/day IP b.i.d. on days 10-17)?
**A.** The value was “ducks 3 and 4 died on day 18 and day 26, respectively”.

**Q.** What about the “Serum DHBV DNA” value ([5]; age 18 days, lines = ducks 1-4 in order) of the same compound?
**A.** Its value is under 1 ng/mL.

**Q.** And the “Serum DHBV DNA” value ([5]; age 19 days, lines = ducks 1, 2, 4)?
**A.** Its value is under 1 ng/mL.

**Q.** And the “Serum DHBV DNA” value ([5]; age 20 days, lines = ducks 1, 2, 4)?
**A.** The value was under 1 ng/mL.

**Q.** And the “Serum DHBV DNA” value ([5]; age 21 days, lines = ducks 1, 2, 4)?
**A.** Its value is under 1 ng/mL.

**Q.** And the IC50 [6]?
**A.** Its IC50 is 1.4 µg/mL (≈ 5.28 µM).

**Q.** What about the “VR (virus rating)” value [1] of the same compound?
**A.** The value was 4.1 and 3.4.

**Q.** What about the “VR (virus rating)” value [2] of the same compound?
**A.** Its value is 5.7 and 5.1.

**Q.** What about the “MTT Assay” value ([7]; 3.2 ug/ml) of the same compound?
**A.** Its value is 79 % of control.

**Q.** And the “MTT Assay” value ([7]; 10 ug/ml)?
**A.** The value was 76 % of control.

**Q.** What about the “MTT Assay” value ([7]; 32 ug/ml) of the same compound?
**A.** Its value is 72 % of control.

**Q.** And the “MTT Assay” value ([7]; 100 ug/ml)?
**A.** The value was 62 % of control.

**Q.** With `Nc1ncnc2c1ncn2C1CC(CO)C1CO` (stereo not shown) [Example 4C, 9-(2',3'-Bis(hydroxymethyl)cyclobutyl)adenine] as the compound, how does the “TI: therapeutic index, minimum cytotoxic drug concentration / ID50” value [8] read?
**A.** Its value is 5.5.

**Q.** What about the “VR (virus rating)” value [1] of the same compound?
**A.** The value was 1.8.

**Q.** What about the “MTC: minimum drug concentration causing any cytotoxicity” value ([9]; HSV-1 (E-377) assay) of the same compound?
**A.** The value was 32 µg/mL.

**Q.** What about the “MTC: minimum drug concentration causing any cytotoxicity” value ([9]; HSV-2 (MS) assay) of the same compound?
**A.** Its value is 100 µg/mL.

**Q.** With `Nc1nc2c(ncn2C2CC(CO)C2)c(=O)[nH]1` (stereo not shown) [Example 5G, 9-(3'-(Hydroxymethyl)cyclobutyl)guanine] as the compound, how does the “TI: therapeutic index, minimum cytotoxic drug concentration / ID50” value [10] read?
**A.** Its value is over 2.2.

**Q.** What about the “TI: therapeutic index, minimum cytotoxic drug concentration / ID50” value [8] of the same compound?
**A.** The value was over 1.0.

**Q.** And the “VR (virus rating)” value [1]?
**A.** The value was 0.9.

**Q.** And the “VR (virus rating)” value [2]?
**A.** The value was 2.1.

**Q.** What about the IC50 ([2]; Human alphaherpesvirus 1, Vero, read-out: ID50: minimum drug concentration that inhibited the CPE by 50%) of the same compound?
**A.** Its IC50 is 146 µg/mL (≈ 621 µM).

**Q.** What about the MCC [11] of the same compound?
**A.** The MCC was over 320 µg/mL.

**Q.** And the “MTC: minimum drug concentration causing any cytotoxicity” value ([9]; HSV-2 (MS) assay)?
**A.** Its value is over 320 µg/mL.

**Q.** For `Nc1nc2c(ncn2C2CC(CO)C2O)c(=O)[nH]1` (stereo not shown) [Example 42P, 9-(2'-hydroxy-3'-hydroxymethyl-1'-cyclobutyl)guanine], which IC50 (HSV-1 (E-377)) is on record?
**A.** The IC50 was 1 µg/mL (≈ 3.98 µM).

**Q.** And the IC50 (HSV-1 (123))?
**A.** The IC50 was 3 µg/mL (≈ 11.9 µM).

**Q.** And the IC50 (HSV-2)?
**A.** Its IC50 is 1 µg/mL (≈ 3.98 µM).
